Publication PMC9234956 (Journal of Medicinal Chemistry, 2022)
Where a chain is given by its changes, count along the chain named. Counter-ions that a name gives are not always drawn. Like-named read-outs stand apart in the source and are kept apart here. Marks after values point to notes of the source that are not given here.

Legend:
[1] = molecular target: T1, human GLP-1R (Homo sapiens, UniProt P43220); assay: BETP-sensitized cAMP screening assay; assay type: cell-based; settings: for SA cAMP + BETP slope: slope of concentration-response curve
T1 sequence (P43220 24-463): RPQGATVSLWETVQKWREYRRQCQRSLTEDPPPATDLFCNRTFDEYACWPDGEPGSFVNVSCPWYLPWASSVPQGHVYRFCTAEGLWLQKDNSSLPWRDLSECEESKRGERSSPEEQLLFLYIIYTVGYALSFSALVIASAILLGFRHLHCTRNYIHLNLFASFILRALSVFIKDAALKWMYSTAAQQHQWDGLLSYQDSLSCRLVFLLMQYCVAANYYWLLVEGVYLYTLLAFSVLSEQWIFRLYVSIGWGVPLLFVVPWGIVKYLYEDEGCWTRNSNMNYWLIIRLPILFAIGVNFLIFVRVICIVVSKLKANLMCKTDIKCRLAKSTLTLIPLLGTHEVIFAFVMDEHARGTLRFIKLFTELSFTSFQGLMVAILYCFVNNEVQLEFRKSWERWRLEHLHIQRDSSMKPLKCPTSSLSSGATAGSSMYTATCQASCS

[2] = Intrinsic metabolic clearance in human liver microsomes; assay type: in vitro ADME; settings: scaled from in vitro half-life; for CLint scaled: human, liver microsomes, HLM CLint
[3] = Intrinsic metabolic clearance in cryopreserved human hepatocytes; assay type: in vitro ADME
[4] = molecular target: T1, human GLP-1R; settings: for SA cAMP – BETP slope: slope of concentration-response curve
[5] = molecular target: T1, human GLP-1R; settings: assay medium
[6] = molecular target: T1, human GLP-1R; assay: cAMP assay in candidate selection; settings: for CS cAMP slope: slope of concentration-response curve
[7] = molecular target: T1, human GLP-1R; assay: βArr1 recruitment, DiscoverX PathHunter cell line, buffer with 0.1% BSA; assay type: cell-based; settings: buffer containing 0.1% BSA
[8] = molecular target: T1, human GLP-1R; assay: βArr2 recruitment, DiscoverX PathHunter cell line, buffer with 0.1% BSA; assay type: cell-based; settings: for βArr2 slope: buffer containing 0.1% BSA
[9] = molecular target: T2, rat GLP-1R (Rattus norvegicus, UniProt P32301); assay: cAMP accumulation, CHO cells expressing rat GLP-1R; assay type: cell-based
T2 sequence (P32301 22-463): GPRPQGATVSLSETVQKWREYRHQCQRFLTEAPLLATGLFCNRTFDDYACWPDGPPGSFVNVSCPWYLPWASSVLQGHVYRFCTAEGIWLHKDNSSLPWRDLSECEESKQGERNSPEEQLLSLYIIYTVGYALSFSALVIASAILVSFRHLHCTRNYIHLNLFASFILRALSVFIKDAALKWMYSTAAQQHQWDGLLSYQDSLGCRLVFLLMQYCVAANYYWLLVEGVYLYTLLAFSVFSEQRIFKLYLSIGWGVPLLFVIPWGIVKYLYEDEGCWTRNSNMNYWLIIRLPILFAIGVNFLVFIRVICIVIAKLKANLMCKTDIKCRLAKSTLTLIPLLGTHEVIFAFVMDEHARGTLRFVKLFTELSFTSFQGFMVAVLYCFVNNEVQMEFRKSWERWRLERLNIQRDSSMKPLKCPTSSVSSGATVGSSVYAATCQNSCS

[10] = molecular target: T3, rabbit GLP-1R (Oryctolagus cuniculus, UniProt G1SGD4); assay: cAMP accumulation, CHO cells expressing rabbit GLP-1R; assay type: cell-based
T3 sequence (G1SGD4 24-462): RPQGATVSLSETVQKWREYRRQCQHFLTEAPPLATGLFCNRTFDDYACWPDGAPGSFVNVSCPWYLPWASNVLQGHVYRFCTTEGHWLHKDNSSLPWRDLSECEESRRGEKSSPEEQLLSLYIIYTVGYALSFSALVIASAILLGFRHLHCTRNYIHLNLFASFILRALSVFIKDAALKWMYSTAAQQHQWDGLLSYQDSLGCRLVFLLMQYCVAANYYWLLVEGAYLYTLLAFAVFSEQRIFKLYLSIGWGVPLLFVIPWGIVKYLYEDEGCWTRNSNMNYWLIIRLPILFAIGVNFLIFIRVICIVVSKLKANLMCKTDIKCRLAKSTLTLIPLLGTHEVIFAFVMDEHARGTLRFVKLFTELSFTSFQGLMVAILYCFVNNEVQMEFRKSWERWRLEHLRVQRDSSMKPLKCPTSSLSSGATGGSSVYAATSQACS

[11] = molecular target: T4, mouse GLP-1R (Mus musculus, UniProt O35659); assay: cAMP accumulation, CHO cells expressing mouse GLP-1R; assay type: cell-based
T4 sequence (O35659 22-463): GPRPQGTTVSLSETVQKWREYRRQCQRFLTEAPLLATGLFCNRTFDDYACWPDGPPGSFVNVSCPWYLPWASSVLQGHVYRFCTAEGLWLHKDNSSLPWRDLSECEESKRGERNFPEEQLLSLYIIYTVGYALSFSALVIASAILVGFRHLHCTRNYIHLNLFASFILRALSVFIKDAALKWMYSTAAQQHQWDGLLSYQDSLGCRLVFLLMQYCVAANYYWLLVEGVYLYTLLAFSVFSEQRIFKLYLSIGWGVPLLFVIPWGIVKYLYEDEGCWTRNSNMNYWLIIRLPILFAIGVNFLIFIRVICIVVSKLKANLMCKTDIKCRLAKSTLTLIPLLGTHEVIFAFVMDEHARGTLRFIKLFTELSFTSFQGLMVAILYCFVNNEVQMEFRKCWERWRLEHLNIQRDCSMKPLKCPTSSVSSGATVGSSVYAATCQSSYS

[12] = test system: cynomolgus monkeys; assay: Cynomolgus monkey food intake; assay type: in vivo; settings: 2.9 mg/kg subcutaneous once daily for 2 days
[13] = molecular target: GFP-tagged human GLP-1R (Homo sapiens, UniProt P43220); assay: Confocal microscopy of GFP-tagged human GLP-1R in HEK 293 cells; assay type: cell-based; settings: stimulation for 30 min; reversible following a 2 h washout
Chain of GFP-tagged human GLP-1R (P43220 24-463): as the sequence (P43220 24-463) above

[14] = molecular target: T1, human GLP-1R
[15] = molecular target: T1, human GLP-1R; remark: listed apart in the source
[16] = molecular target: T5, mouse GLP-1R S33W (Mus musculus, UniProt O35659, S33W)
T5 sequence (O35659 22-463 S33W): T4 sequence (O35659 22-463) with S12W

[17] = single oral doses 3–300 mg, fasted
[18] = molecular target: T1, human GLP-1R; settings: relative to liraglutide; HEK 293 FAP-GLP1R
[19] = in vivo; settings: male, Wistar-Han, rat, plasma, iv, 1 mg/kg
[20] = in vivo; settings: male, cynomolgus monkey, plasma, iv, 1 mg/kg
[21] = test system: cynomolgus monkeys; assay: Intravenous glucose tolerance test; settings: iv infusion
[22] = molecular target: human GLP-1R W33S (Homo sapiens, UniProt P43220, W33S); assay: cAMP, functional assessment of GLP-1R mutants: human W33S
Chain of human GLP-1R W33S (P43220 24-463 W33S): as the sequence (P43220 24-463) above, with W10S counted along it

[23] = test system: healthy adult participants; assay: Phase 1 first-in-human single ascending dose study: safety
[24] = rat, Tris salt, fasted
[25] = monkey, 5.0 mg/kg po, Tris salt, fasted

Cn1c(CN2CCC(c3nc(OCc4ccc(Cl)cc4F)ncc3F)CC2)nc2ccccc21 [compound 2]
SA cAMP + BETP slope [1]: 1.3 ± 0.75
CLint scaled [2]: > 150 mL/min/kg
hHEP CLint [3]: 48 (n = 1) μL/min/million
GLP-1R agonist activity in the unpotentiated cAMP SA ([4]; without BETP): inactive

Cn1c(CN2CCC(c3cccc(OCc4ccc(Cl)cc4F)n3)CC2)nc2ccc(C(=O)O)nc21 [compound 5]
SA cAMP + BETP slope [1]: 0.97 ± 0.15
CLint scaled [2]: 29 ± 4.4 mL/min/kg
SA cAMP – BETP slope [4]: 1.1 ± 0.17
βArr2 + BETP slope [5]: 0.69 ± 0.13
agonist character in CS cAMP assay [6]: full agonist
fold less potent in CS cell line than in SA ([6]; CS vs SA cAMP EC50): ~20 fold
CS cAMP slope [6]: 1 ± 0.14

N#Cc1ccc(COc2cccc(C3CCN(Cc4nc5ccc(C(=O)O)cc5n4C[C@@H]4CCO4)CC3)n2)c(F)c1 [danuglipron, (S)-2-[(4-{6-[(4-Cyano-2-fluorobenzyl)oxy]pyridin-2-yl}piperidin-1-yl)methyl]-1-(oxetan-2-ylmethyl)-1H-benzo[d]imidazole-6-carboxylic Acid]
SA cAMP + BETP slope [1]: 0.98 ± 0.029
βArr1 slope [7]: 0.90 ± 0.067
agonist character in βArr2 recruitment [8]: partial agonist
βArr2 slope [8]: 1 ± 0.18
effect on cAMP levels [9]: did not increase cAMP levels
effect on cAMP levels [10]: did not increase cAMP levels
effect on cAMP levels [11]: did not increase cAMP levels
food intake versus vehicle [12]: inhibited food intake
intracellular accumulation of GFP-GLP-1R [13]: marked intracellular accumulation of the GFP-GLP-1R
SA cAMP – BETP slope [4]: 1.1 ± 0.11
[125I]GLP-1 binding slope [14]: 0.70 ± 0.099
[3H]PF-06883365 binding slope [15]: 1 ^b
cAMP signaling at mouse GLP-1R S33W [16]: increased the level of accumulation of cAMP
cAMP signaling at mouse GLP-1R S33W ([16]; listed as Danuglipron): restored
increase of plasma exposure (Cmax, AUCinf) with dose [17]: approximately dose-proportional
Bias factor (toward cAMP), cAMP vs Internalization [18]: 3.6
clearance at 24 h [19]: 57.3 ± 8.68 mL/min/kg
half-life [19]: 1.1 h
clearance at 24 h [20]: 13.8 mL/min/kg
half-life [20]: 1.9 h
insulin secretion during IVGTT [21]: increase in the rate of insulin secretion
rate of glucose disappearance (K value) during IVGTT [21]: increased the rate of glucose disappearance
insulin secretion during IVGTT ([21]; listed as Danuglipron): enhanced insulin secretion
cAMP signaling at human GLP-1R W33S [22]: failed to induce signaling
cAMP signaling at human GLP-1R W33S ([22]; listed as Danuglipron): negated
post-dose fasting serum glucose levels ([23]; after single doses, healthy participants): remained within the normal reference range
tolerability after po administration under fasted conditions ([23]; single doses 3 to 300 mg, healthy adults): generally well tolerated
agonist character in CS cAMP assay [6]: full agonist
CS cAMP slope [6]: 1.1 ± 0.14

Cn1c(CN2CCC(c3cccc(OCc4ccc(Cl)cc4F)n3)CC2)nc2ccncc21 [compound 3]
fold more potent than HTS hit 2 ([1]; SA + BETP EC50): > 100 fold
SA cAMP + BETP slope [1]: 0.89 ± 0.17
CLint scaled [2]: 130 mL/min/kg
HLM CLint [2]: 140 ± 46 (n = 3) mL/min/kg
hHEP CLint [3]: 55 (n = 1) μL/min/million
SA cAMP – BETP slope [4]: 1.2 ± 0.26
βArr2 + BETP slope [5]: 0.97 ± 0.10

Cn1c(CN2CCC(c3cccc(OCc4ccc(Cl)cc4F)n3)CC2)nc2nccc(NCC(=O)O)c21 [compound 4]
SA cAMP + BETP slope [1]: 0.76 ± 0.058
CLint scaled [2]: < 11 mL/min/kg
SA cAMP – BETP slope [4]: 0.75 ± 0.18
βArr2 + BETP slope [5]: 0.93 (0.98, 0.88)

CCn1cncc1Cn1c(CN2CCC(c3cccc(OCc4ccc(F)cc4F)n3)CC2)nc2ccc(C(=O)O)cc21 [PF-06883365]
βArr1 slope [7]: 0.94 ± 0.013
βArr2 slope [8]: 0.79 ± 0.12
SA cAMP – BETP slope [4]: 0.98 ± 0.12
[3H]PF-06883365 binding slope [15]: 1.0 ± 0.15
CS cAMP slope [6]: 1.1 ± 0.19

N#Cc1ccc(COc2cccc(C3CCN(Cc4nc5ccc(C(=O)O)cc5n4C[C@@H]4CCO4)CC3)n2)c(F)c1 [Danuglipron, Tris salt, (S)-2-[(4-{6-[(4-Cyano-2-fluorobenzyl)oxy]pyridin-2-yl}piperidin-1-yl)methyl]-1-(oxetan-2-ylmethyl)-1H-benzo[d]imidazole-6-carboxylic Acid]
oral F ([24]; 5.0 mg/kg po): 11 (10, 12) %
oral F ([24]; 100 mg/kg po): 39 (37, 44) %
oral F [25]: 5.0 (4.0, 6.0) %
